Measurements as given in PubChem BioAssay (NCI).
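Growth conditions: 96-well plates. Treatment: test compound, 48 hours, 5 concentrations. Analysis: linear interpolation between bracketing concentrations; unreached endpoints set to highest concentration. At the TGI there is no net growth.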

Assays:
Experiment in all cases: NCI tumour cell line growth inhibition, 48 h
CAKI-1 renal = system: CAKI-1 renal
COLO 205 colon = system: COLO 205 colon
DU-145 prostate = system: DU-145 prostate
EKVX NSCLC = system: EKVX NSCLC
HOP-92 NSCLC = system: HOP-92 NSCLC
KM12 colon = system: KM12 colon
MALME-3M melanoma = system: MALME-3M melanoma
MDA-N = system: MDA-N
OVCAR-4 ovarian = system: OVCAR-4 ovarian
SF-295 CNS = system: SF-295 CNS
SK-MEL-5 melanoma = system: SK-MEL-5 melanoma
SNB-19 CNS = system: SNB-19 CNS
T-47D breast = system: T-47D breast
U251 CNS = system: U251 CNS
UACC-257 melanoma = system: UACC-257 melanoma
UO-31 renal = system: UO-31 renal
HCC-2998 colon = system: HCC-2998 colon
A498 renal = system: A498 renal

SMILES	TGI (CAKI-1 renal) [µM]	TGI (COLO 205 colon) [µM]	TGI (DU-145 prostate) [µM]	TGI (EKVX NSCLC) [µM]	TGI (HOP-92 NSCLC) [µM]	TGI (KM12 colon) [µM]	TGI (MALME-3M melanoma) [µM]	TGI (MDA-N) [µM]	TGI (OVCAR-4 ovarian) [µM]	TGI (SF-295 CNS) [µM]	TGI (SK-MEL-5 melanoma) [µM]	TGI (SNB-19 CNS) [µM]	TGI (T-47D breast) [µM]	TGI (U251 CNS) [µM]	TGI (UACC-257 melanoma) [µM]	TGI (UO-31 renal) [µM]	TGI (HCC-2998 colon) [µM]	TGI (A498 renal) [µM]
NC(=O)c1c(NC=O)ncn1C1OCC(O)C(O)C1O (stereo not given)	> 100	> 100	> 100	> 100	> 100	> 100	> 100	> 100	> 100	> 100	> 100	> 100	> 100	> 100	> 100	> 100	–	–
Cc1ccc(O)c(C2=CC(c3cccc(Br)c3)SC(N)=N2)c1 (stereo not given)	> 100	34.6	> 100	59.9	60.4	82.3	78.9	50.1	> 100	42.2	32	32.4	87.9	33.4	41.3	65.3	–	–
CCn1c(=O)c2nc(SC)sc2n(-c2ccccc2)c1=O	–	> 100	> 100	–	> 100	> 100	> 100	> 100	> 100	> 100	> 100	> 100	> 100	> 100	> 100	56.4	> 100	–
Nc1ccc(-c2nc3ccccc3s2)cc1C#Cc1ccccc1	37.2	31	72.5	39.8	52.8	37.9	28.5	35.8	44	47.1	31.1	72.1	> 100	38.6	31.3	36.7	–	42.5
COC1CCC(=O)N1CN(C(C)=O)c1ccc(C)cc1 (stereo not given)	> 100	> 100	> 100	–	–	> 100	–	> 100	> 100	> 100	> 100	> 100	> 100	> 100	> 100	> 100	> 100	–
CCCC1(CCC)c2cc(/C=N\O)ccc2-c2ccc(-c3ccc(C(C)(C)C)cc3)cc21	> 100	> 100	> 100	> 100	> 100	> 100	> 100	> 100	> 100	> 100	> 100	> 100	> 100	–	> 100	> 100	> 100	–
COc1ccccc1NCc1cccc2c(=O)c3ccc(Cl)cc3oc12	> 100	> 100	–	> 100	> 100	> 100	> 100	> 100	> 100	> 100	> 100	> 100	> 100	> 100	> 100	> 100	> 100	> 100
CC[C@H](C)C1=C(O)[N@+]2([O-])Oc3ccc(-c4c(O)c(O)c(-c5ccc(O)cc5)c(OC(C)=O)c4OC(C)=O)cc3O[C@]2([C@@H](C)CC)C(=O)N1O	> 50	> 50	> 50	> 50	32.1	> 50	> 50	> 50	36.2	> 50	> 50	> 50	> 50	> 50	> 50	> 50	–	> 50
CCOC(=O)c1cc(C2CCN(c3ccccc3)C2=O)c(C(=O)/C=C(/C)N)[nH]1 (stereo not given)	81.6	> 100	> 100	> 100	–	> 100	35.6	> 100	> 100	46.7	> 100	52.4	> 100	36.4	> 100	> 100	> 100	> 100
C=CCOc1ccccc1C1(O)c2ccccc2C2=NCCCN21 (stereo not given)	> 100	78.9	> 100	> 100	> 100	> 100	–	> 100	> 100	71.6	> 100	79.5	> 100	> 100	> 100	> 100	30.3	> 100
N#Cc1c(-c2ccc(Cl)cc2)c2c(N=Nc3c(O)ccc4ccccc34)[nH]nc2[nH]c1=O	1.26	2.66	1.07	2.19	0.865	–	0.944	2.08	3.68	1.18	1.62	1.91	–	1.56	–	1.05	0.89	0.468
S=C(N1CCN(c2cccc(Cl)c2)CC1)N1CCN(c2cccc(Cl)c2)CC1	83.7	68	> 100	> 100	–	61.7	71.4	> 100	> 100	> 100	> 100	> 100	> 100	> 100	> 100	86.1	36.1	–
O=C1CSC2=NC3=C(CSC/C3=C\c3ccccc3)C(c3ccccc3)N12 (stereo not given)	–	> 100	> 100	> 100	> 100	> 100	> 100	> 100	> 100	> 100	> 100	–	> 100	> 100	> 100	> 100	> 100	–
CCn1c2ccccc2c2ccc(C3C(C(=O)OC)=C(C)NC(C)=C3C(=O)OC)cc21	> 100	> 100	> 100	> 100	–	> 100	60.1	> 100	> 100	> 100	> 100	> 100	> 100	> 100	> 100	> 100	> 100	46
